Values of other authors as cited in publication PMC7275090, “Mode of action of teixobactins in cellular membranes” (Nature Communications, 2020).

System: bacteria
Conditions: cited from earlier work

## Teixobactin
  antibacterial activity: excellent activity
